Assay results: patent US20230103444A1 (The Regents of the University of Colorado, a Body Corporate, priority 2020, published 2023)
≈ marks a conversion by molar mass, not a printed value. Entries after “also recorded” stand apart in the source; their conditions may differ.

Legend:
SW620 cells = assay: Annexin V-FITC apoptosis assay; format: cell-based, human; conditions: 12 h, compared to DMSO; positive control SN-38
Method: SW620 cells were plated at 30,000 cells/well in 96-well plates. […] Cells were then rinsed 2× with cold PBS, 1× with cold Annexin-V staining buffer (10 mM HEPES, pH 7.4, 140 mM NaCl, 2.5 mM CaCl2), and then incubated with Annexin-V FITC at 1:100 for 30 min in the dark. Cells were then rinsed 2× with Annexin-V staining buffer and FITC intensity was measured using an EnVision® plate reader (PerkinElmer, Hopkinton, Mass.).

[1] = Aqueous solubility in PBS; format: physicochemical; conditions: aqueous with cosolvent or surfactant or cyclodextrin; 10% DMSO in PBS (pH 7.4)
Method: The measurement of solubility in PBS was conducted in duplicate experiments. The consensus LogP (CLogP) values were obtained using the SwissADME web tools. [Daina et al., 2017]

[2] = test system: CRC042 patient-derived tumor organoids; assay: Patient tumor organoid cytotoxicity; format: cell-based; conditions: Homo sapiens; single agent, Table 4A
[3] = test system: CRC102 patient-derived tumor organoids; assay: Patient tumor organoid cytotoxicity; format: cell-based; conditions: Homo sapiens; single agent, Table 4A
Method: Patient Cell Tumor Organoid Culture. CRC048 and CRC102 patient cell samples were expanded and cultured as PDTOs using reported methodologies and reagents. (Drost et al., 2016; Sato et al., 2011) Briefly, patient cells were washed with PBS, digested with TrypLE, and filtered through 100 μm cell strainer before used in 3D cell culture. Patient cells were seeded at 5,000 cells per well in 96-well plates, coated with 2% Matrigel, and allowed to self-assemble as PDTOs over 72 h.
Tumor Organoid Cytotoxicity.

TCF-transcription = assay: TOPflash TCF-transcriptional reporter assay; format: cell-based, human; conditions: TOPflash reporter in CRC cell lines (SW620, HCT116, DLD1CHD1L-OE), 24 h; listed as 8
Method: TOPflash assay (Millipore, Billerica, Mass.) was used to evaluate TCF transcriptional activity in CRC cells. A total of 20,000 cells per well were plated into 96-well white plates and transfected with TransIT®-LT1 transfection reagent (Mirus, Madison, Wis.). Cells were incubated with transfection mix for 24 h. Next, cells were washed with phosphate-buffered solution (PBS) and a 1:1 ratio of PBS:ONE-Glo™ luciferase reagent Promega (Madison, Wis.) was added and the luminescence was detected within 10 min. A duplicate experiment was conducted to measure cell viability using CellTiter-Glo® Luminescent Cell Viability Assay (Promega, Madison, Wis.), which was used to normalize TOPflash luminescence to obtain the fold change in TCF activity. Experiments were replicated 2× (n=3 for each experiment).
TCF-transcriptional Reporter Assay. […] Afterwards, cells from the white solid bottom plate were carefully washed with PBS and a 1:1 ratio of PBS:One-Glo Luciferase Assay System (Promega) was added, incubated for 10 min, and luminescence was quantified on Envision plate reader (PerkinElmer) for TCF-activity. As a control, cells from the clear plate were lysed with Mammalian Cell Lysis Buffer (Promega) and the total protein from each well was quantified with BCA assay (ThermoFisher).

Method for SW620 tumor xenografts: In vivo studies. […] Body weight and tumor volumes were monitored 2×/week. […] In addition, irinotecan was administered i.p. at 50 mg/kg.

Row | Compound | apoptosis (annexin-V staining) (SW620 cells) | solubility [1] [µg/mL] | IC50 [2] [µM] | IC50 [3] [µM] | tumor volume, combination with irinotecan (SW620 tumor xenografts; compound 6 5 mg/kg i.p. 2×/day + irinotecan 60 mg/kg i.p. 1×/week, 28 days, vs single agents or control) | tumor volume after the last treatment, combination with irinotecan (SW620 tumor xenografts; compound 6 + irinotecan vs irinotecan alone, last treatment day 28) | survival of tumor-bearing mice, combination with irinotecan (SW620 tumor xenografts; compound 6 + irinotecan, compared to vehicle and single agents) | survival of tumor-bearing mice, compound alone (SW620 tumor xenografts; compound 6 alone, compared to vehicle) | inhibition of TCF-transcription, in words (TCF-transcription)
1 | Cc1cc(Nc2ccc(NC(=O)Cc3cccs3)cc2)nc(N2CCCC2)n1 [Compound 6, N-(4-((6-methyl-2-(pyrrolidin-1-yl)pyrimidin-4-yl)amino)phenyl)-2-(thiophen-2-yl)acetamide] | induced significant apoptosis | 700 (≈ 1780 µM) | 18.6 | 22.6 | significantly inhibit colon SW620 tumor xenografts to almost no tumor volume | significantly inhibits colon SW620 tumors to almost no tumor volume beyond the last treatment | significantly increases the survival | significantly increases the survival | 
2 | Cc1cc(Nc2ccc(NC(=O)c3c[nH]c4ccccc34)cc2)nc(N2CCCC2)n1 [Compound 6.3, N-(4-((6-methyl-2-(pyrrolidin-1-yl)pyrimidin-4-yl)amino)phenyl)-1H-indole-3-carboxamide] |  |  |  |  |  |  |  |  | potent low μM dose-dependent inhibition; also recorded: more potent dose dependent inhibition
